Key:
Type in all cases: biochemical
MYC = assay: In vitro transcription-translation (IVTT) assay, MYC reporter; conditions: IVTT assay, HeLa S3 lysate, MYC reporter, normalized sfGFP/mCherry ratio; half-log dilutions 30 μM-0.1 μM, 2 hrs at 30° C.
How it was run: (§1)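 Reporter: mCherry, P2A, then 3×FLAG-target peptide-sfGFP fusion, IRES-initiated; HeLa S3 lysate IVTT; cpd dilutions 30 μM−0.1 μM half-log in 100% DMSO (dilution-plate conc); DNA added last; 2 h, 30° C; PBS quench.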

CCND1 = assay: In vitro transcription-translation (IVTT) assay, CCND1 reporter; conditions: IVTT, HeLa S3 lysate, 2 hrs at 30° C.
How it was run: as §1

CCNE1 = assay: In vitro transcription-translation (IVTT) assay, CCNE1 reporter; conditions: HeLa S3 lysate, 2 hrs at 30° C.
Description: Each preparation takes 8 cell pellets (4 ml packed volume each, approximately 1.0×10^9 cells per pellet). Thaw cell pellets from −80° C. on ice for 90 mins. Lay pellets horizontally on top of the ice and rotate every 30 mins to ensure even thawing. Once thawed, add 4 mL of cold lysis buffer to each pellet, and using a serological pipet, gently pipet up and down to break up clumps. Incubate resuspended cells in ice for an additional 30 mins (plunged into ice). During 30 min incubation, rinse and RNase-zap (Ambion) glass dounces (use loose pestle “A”), gently dry and place on ice until needed. Prepare RNase-free Eppendorf tubes for spinning and for batch storage. Add batch labels to 1.5-1.7 mL RNase-free microcentrifuge tubes (labeling scheme below). Each batch will have an extra 1.5-1.7 mL RNase-free microcentrifuge tube for 40 μL of lysate, label the top of this tube (labeling scheme below). After 30 min incubation, transfer all 8 mL of cell pellet to dounce. Cell lysis is complete after douncing 100 times. Aliquot cell lysis into 1.5-1.7 mL temporary-microcentrifuge tubes. Place tubes in centrifuge with “fins” out, and spin at 1,200×g for 5 mins. After the first spin use a 1 mL pipet to resuspend each tube and repeat spin. This acts as an additional lysis step, is more vigorous and increases lysate yield. During second spin get liquid N2 and a fresh conical tube on ice. After spin is complete, transfer supernatant (lysate) from microcentrifuge tubes into the 50 mL conical tube and keep on ice. Repeat steps 10-14 for all other cell pellets until completed. Once all cell lysate has been transferred to the 50 mL conical tube pipet to mix so the solution is homogenous. Transfer 1 mL of lysate into batch-labeled microcentrifuge tubes and flash freeze in liquid nitrogen. Be sure to pipet up and down to mix throughout transfer step. Place all tubes in the […] for long-term storage.
In vitro transcription-translation assay setup: Each assay includes a master mix containing lysate and shared components, a 96-well plate containing compound titrations for testing, a 96-well DNA plate with reporter constructs to be tested, 96-well skirted PCR plates, and 96-well flat-bottom, black, fluorescent assay plates. Reaction materials setup: (A) Master mix—15 mL conical tube (3 mL of HeLa S3 Lysate described above; 0.6 mL of ThermoFisher Accessory Proteins (#88882); 1.2 ml of ThermoFisher Reaction Mix (#88882); 0.54 mL of nuclease-free Water); (B) 96-Well Master Mix+Compound Plate (Half-log dilutions (30 μM−0.1 μM) of 4 compounds of interest are prepared in 100% DMSO); 96-Well DNA Plate (Five DNA constructs are plated into single columns within the plate. Row 1 of the column contains nuclease free H2O, all other wells contain 110 ng/μL plasmid DNA). Reactions are started by mixing 155 μL of master mix and 3.5 μL of compound serial dilutions, then 9.1 μL of master mix+compound mixture is aliquoted across 5 96-well plates. Reactions begin with final addition of 2 μL of DNA for a 11.1 μL reaction volume in each well. The entire plate is sealed, and incubated for 2 hrs at 30° C. After 2 hrs, quench the assay using 45 μL of PBS, and transfer 50 μL to a flat-bottom black microplate Quantify the sfGFP and mCherry signals from each well on each plate, taking 3 reads of each plate, and perform data analysis below.
In vitro transcription-translation assay data analysis: Each plate is read three times in channels for both sfGFP and mCherry signals. The average signal across these 3 reads is then calculated for further analysis. Control wells containing no DNA reporter are subtracted from reporter wells in the same column to remove auto-fluorescence of the lysate. Then, the ratio of sfGFP/mCherry is calculated per well, and these ratios are averaged across the triplicate experiments on the same plate. Finally, the ratio of each titration concentration is normalized to the no drug control to create the normalized stalling metric. […]

CCNTB1 = assay: In vitro transcription-translation (IVTT) assay, CCNTB1 reporter; conditions: HeLa S3 lysate, 2 hrs at 30° C.
How it was run: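 HeLa S3 lysate-based coupled transcription-translation reactions with reporter plasmids, compounds in half-log dilutions (30 μM−0.1 μM, in DMSO), 2 h at 30° C. sfGFP/mCherry ratio, corrected for no-DNA background, normalized to no-drug control and fitted for IC50.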

IC50 (CCND1)	IC50 (CCNE1)	IC50 (CCNTB1)	SMILES	IC50 (MYC)
< 10 µM	< 10 µM	< 10 µM	COc1ccc(C[C@H]2NC[C@H](O)[C@H]2OC(=O)NCC2CCS(=O)(=O)C2)cc1 (stereo partly drawn) [V188154, (2R,3S,4S)-4-hydroxy-2-[(4-methoxyphenyl)methyl]pyrrolidin-3-yl N-[(1,1-dioxo-1lambda6-thiolan-3-yl)methyl]carbamate]	< 10 µM
> 30 µM	10 to 20 µM	< 10 µM	COc1ccc(C[C@H]2NC[C@H](O)[C@H]2OC(=O)NC[C@@H]2[C@@H]3CNC[C@@H]32)cc1 [V188161, (2R,3S,4S)-4-hydroxy-2-[(4-methoxyphenyl)methyl]pyrrolidin-3-yl N-[(1R,5S,6S)-3-azabicyclo[3.1.0]hexan-6-ylmethyl]carbamate]	> 30 µM
> 30 µM	20 to 30 µM	10 to 20 µM	COc1ccc(C[C@H]2NC[C@H](O)[C@H]2OC(=O)NCC(F)(F)CO)cc1 [V188164, (2R,3S,4S)-4-hydroxy-2-[(4-methoxyphenyl)methyl]pyrrolidin-3-yl N-(2,2-difluoro-3-hydroxypropyl)carbamate]	> 30 µM
< 10 µM	< 10 µM	< 10 µM	COc1ccc(C[C@H]2NC[C@H](O)[C@H]2OC(=O)NC[C@H]2CCN(c3nccs3)C2)cc1 [V188170, (2R,3S,4S)-4-hydroxy-2-[(4-methoxyphenyl)methyl]pyrrolidin-3-yl N-{[(3R)-1-(1,3-thiazol-2-yl)pyrrolidin-3-yl]methyl}carbamate]	10 to 20 µM
> 30 µM	> 30 µM	> 30 µM	COc1ccc(C[C@H]2NC[C@H](O)[C@H]2OC(=O)NCC2CCNCC2)cc1 [V188172, (2R,3S,4S)-4-hydroxy-2-[(4-methoxyphenyl)methyl]pyrrolidin-3-yl N-(piperidin-4-ylmethyl)carbamate]	> 30 µM
> 30 µM	< 10 µM	< 10 µM	O=C(NC[C@H]1CCNC1)O[C@@H]1[C@@H](O)CN[C@@H]1Cc1ccc(Cl)cc1 [V188188, (2R,3S,4S)-2-[(4-chlorophenyl)methyl]-4-hydroxypyrrolidin-3-yl N-[(3S)-pyrrolidin-3-ylmethyl]carbamate]	> 30 µM
10 to 20 µM	< 10 µM	< 10 µM	O=C(NCc1ccccc1)O[C@@H]1[C@@H](O)CN[C@@H]1Cc1ccc(Cl)cc1 [V188203, (2R,3S,4S)-2-[(4-chlorophenyl)methyl]-4-hydroxypyrrolidin-3-yl N-benzylcarbamate]	10 to 20 µM
< 10 µM	< 10 µM	< 10 µM	COc1ccc(C[C@H]2NC[C@H](O)[C@H]2OC(=O)NCc2ccc(=O)[nH]c2)cc1 [V188206, (2R,3S,4S)-4-hydroxy-2-[(4-methoxyphenyl)methyl]pyrrolidin-3-yl N-[(6-oxo-1H-pyridin-3-yl)methyl]carbamate]	< 10 µM
< 10 µM	< 10 µM	< 10 µM	COc1ccc(C[C@H]2NC[C@H](O)[C@H]2OC(=O)NCc2ccnc(N3CCCC3)c2)cc1 [V188226, (2R,3S,4S)-4-hydroxy-2-[(4-methoxyphenyl)methyl]pyrrolidin-3-yl N-{[2-(pyrrolidin-1-yl)pyridin-4-yl]methyl}carbamate]	< 10 µM

Continued, molecule first:

SMILES	IC50 (CCND1)	IC50 (CCNE1)	IC50 (CCNTB1)	IC50 (MYC)
COc1ccc(C[C@H]2NC[C@H](O)[C@H]2OC(=O)NC[C@H]2CCNC2)cc1F [V188076, (2R,3S,4S)-2-[(3-fluoro-4-methoxyphenyl)methyl]-4-hydroxypyrrolidin-3-yl N-[(3S)-pyrrolidin-3-ylmethyl]carbamate]	20 to 30 µM	10 to 20 µM	< 10 µM	> 30 µM
COc1ccc(C[C@H]2NC[C@H](O)[C@H]2OC(=O)NCCn2ccnc2[N+](=O)[O-])cc1 [V188085, (2R,3S,4S)-4-hydroxy-2-[(4-methoxyphenyl)methyl]pyrrolidin-3-yl N-[2-(2-nitroimidazol-1-yl)ethyl]carbamate]	20 to 30 µM	< 10 µM	< 10 µM	10 to 20 µM
COc1ccc(C[C@H]2NC[C@H](O)[C@H]2OC(=O)NCCn2cc[nH]c2=O)cc1 [V188088, (2R,3S,4S)-4-hydroxy-2-[(4-methoxyphenyl)methyl]pyrrolidin-3-yl N-[2-(2-oxo-3H-imidazol-1-yl)ethyl]carbamate]	> 30 µM	10 to 20 µM	< 10 µM	20 to 30 µM
COc1ccc(C[C@H]2NC[C@H](O)[C@H]2OC(=O)NC[C@H]2CCN(C)C2)cc1 [V188108, (2R,3S,4S)-4-hydroxy-2-[(4-methoxyphenyl)methyl]pyrrolidin-3-yl N-{[(3R)-1-methylpyrrolidin-3-yl]methyl}carbamate]	> 30 µM	> 30 µM	20 to 30 µM	> 30 µM
COc1ccc(C[C@H]2NC[C@H](O)[C@H]2OC(=O)NCCC23CCCN2CCC3)cc1 [V188135, (2R,3S,4S)-4-hydroxy-2-[(4-methoxyphenyl)methyl]pyrrolidin-3-yl N-[2-(hexahydropyrrolizin-7a-yl)ethyl]carbamate]	20 to 30 µM	20 to 30 µM	10 to 20 µM	10 to 20 µM
COc1ccc(C[C@H]2NC[C@H](O)[C@H]2OC(=O)NCc2ccc(-c3ncc[nH]3)cc2)cc1 [V188144, (2R,3S,4S)-4-hydroxy-2-[(4-methoxyphenyl)methyl]pyrrolidin-3-yl N-{[4-(1H-imidazol-2-yl)phenyl]methyl}carbamate]	< 10 µM	< 10 µM	< 10 µM	< 10 µM
COc1ccc(C[C@H]2NC[C@H](O)[C@H]2OC(=O)NC[C@H]2C[C@@H](N)C2)cc1 [V188147, (2R,3S,4S)-4-hydroxy-2-[(4-methoxyphenyl)methyl]pyrrolidin-3-yl N-{[(1s,3s)-3-aminocyclobutyl]methyl}carbamate]	10 to 20 µM	< 10 µM	< 10 µM	< 10 µM
COc1ccc(C[C@H]2NC[C@H](O)[C@H]2OC(=O)NCc2ccc3[nH]cnc3c2)cc1 [V188150, (2R,3S,4S)-4-hydroxy-2-[(4-methoxyphenyl)methyl]pyrrolidin-3-yl N-(JH-1,3-benzodiazol-5-ylmethyl)carbamate]	< 10 µM	< 10 µM	< 10 µM	< 10 µM
COc1ccc(C[C@H]2NC[C@H](O)[C@H]2OC(=O)NCCc2ccc(S(=O)(=O)F)cc2)cc1 [V188175, (2R,3S,4S)-4-hydroxy-2-[(4-methoxyphenyl)methyl]pyrrolidin-3-yl N-{2-[4-(fluorosulfonyl)phenyl]ethyl}carbamate]	> 30 µM	10 to 20 µM	< 10 µM	10 to 20 µM
COc1ccc(C[C@H]2NC[C@H](O)[C@H]2OC(=O)NCc2cc(N3CCC3)nc(N3CCC3)c2)cc1 [V188227, (2R,3S,4S)-4-hydroxy-2-[(4-methoxyphenyl)methyl]pyrrolidin-3-yl N-{[2,6-bis(azetidin-1-yl)pyridin-4-yl]methyl}carbamate]	20 to 30 µM	20 to 30 µM	< 10 µM	20 to 30 µM
